Where two headings read alike, the source gives them in different places.
Key:
[1] = test system: SNU423; test: CCK-8 cytotoxicity assay, SNU423; assay type: cell-based; conditions: Homo sapiens, SNU-423, 72 h treatment
Method: (§1) The cytotoxicity of compounds was determined by the CCK-8 assay (Cell Counting Kit-8, CK04, Dojindo Molecular Technologies, Kumamoto, Japan). Cell lines were plated at 10,000 cells/well in 96-well plates and incubated overnight to allow for adherence (5% CO2, 37 °C). […] Cells were placed back in the incubator for 72 h treatment. CCK-8 reagent was added, and plates were further incubated 1–4 h as directed by the supplier’s instructions. Optical density was measured using a Biotek Synergy H1 plate reader at 450 nm. Primary hepatocytes were plated at 30,000 cells or 50,000 cells/well and maintained according to the technical information bulletin provided by the supplier. Upon treatment, maintenance media were supplemented with 10% FBS and fresh test compound for all subsequent media changes, as directed.

[2] = test system: SNU475; test: CCK-8 cytotoxicity assay, SNU475; assay type: cell-based, human; conditions: 72 h treatment
Method: as §1

[3] = test system: HepG2; test: CCK-8 cytotoxicity assay, HepG2; assay type: cell-based, human; conditions: 72 h treatment
Method: as §1

[4] = test system: THLE-2; test: CCK-8 cytotoxicity assay, THLE-2; assay type: cell-based; conditions: Homo sapiens, 72 h treatment
Method: as §1

[5] = test system: Primary Male Hepatocytes; test: CCK-8 cytotoxicity assay, primary male hepatocytes; assay type: cell-based; conditions: 72 h treatment
Method: as §1

[6] = test system: SNU475 cells; test: Cellular invasion assay, SNU475; assay type: cell-based, human; conditions: 1 µM and 10 µM, 48 h of treatment
Method: The BioCoat Matrigel invasion assay was performed according to the manufacturer’s instructions (BioCoat Matrigel Invasion Chambers, 354480, Corning, Corning, NY, USA). AR-negative clones and parental lines (SNU475 and HCCLM3) were hormone-deprived in phenol red-free RPMI1640 with 5% csFBS (±Pen-Strep) for 24 h. A total of 40,000 cells were suspended in a well insert in 0.5 mL of phenol red-free medium without csFBS over a well of 0.75 mL phenol red-free medium with 5% csFBS as a chemoattractant and incubated for 24 h. Invaded cells were fixed in 4% paraformaldehyde and stained with 0.1% crystal violet in 20% methanol. Cells in 10 different and non-overlapping fields of each membrane were photographed and counted. The Fluorometric QCM™ 24-Well Cell Invasion Assay (ECM 554, MilliporeSigma, Burlington, MA, USA) was executed as per the manufacturer’s protocol using 1.25 × 10^5 cells in 250 μL of serum-free medium and incubated for 24–72 h. Following cell lysis and staining with CyQuant GR Dye, fluorescence was measured in a plate reader using a 480/520 nm filter set.
(§2) Figure S3. […] (A) SNU475 cells were treated with 10 µM of each
(§3) compound for 24 hours before analysis by AR ELISA. (B ) (Left) Cellular invasion assay was performed on SNU475
(§4) Mean + SD One way ANOVA with
(§5) (Right) Cell viability was
(§6) (1 picture or pasted object on this page, not shown here)

[7] = test system: SNU475 cells; test: Cell viability under invasion assay conditions; assay type: cell-based, human; conditions: 1 µM
Method: as §2, §3, §4, §5, §6

[8] = Single-dose IV and PO pharmacokinetics in mice; assay type: in vivo, male C57BL/6 mice
Method: The in-life study and quantitative analysis of plasma samples using LC/MS were performed at Charles River Laboratories, Inc. (Wilmington, MA, USA).

[9] = test system: SNU475 cells; test: Hollow fiber assay (HFA) model of AR-SV HCC; assay type: in vivo; conditions: BID PO one week; niclosamide 75, valine–niclosamide 106.1, valine–compound #7 87.3, compound #7 62.9 mg/kg; nude mice
Text: The hollow fiber procedures were based upon those developed by Hollingshead et al. with technical consultation kindly provided by Drs. Joanna Burdette and Dan Lantvit (University of Illinois Chicago, Chicago, IL, USA). […] In order to utilize a PO dosing approach with the HFA, we extended the traditional HFA timeline to establish angiogenesis, as noted in the literature. […] Hollow fibers (KrosFlo Implant Membranes, M138615, Repligen, Waltham, MA, USA) were filled with 3 × 10^6 SNU475 cells/mL per length and heat-sealed into 2 cm lengths on Day −1. On Day 0, three fibers were implanted into 20-week-old male outbred homozygous athymic nude mice (Foxn1^nu/Foxn1^nu, The Jackson Laboratory, Bar Harbor, ME, USA) subcutaneously parallel to the spine. Following a 14-day waiting period to allow for angiogenesis around the fibers, treatment was initiated. […] On Day 21, mice were euthanized and hollow fibers were explanted. The MTT assay was performed according to the KrosFlo Implant Membrane protocol utilizing Thiazolyl Blue Tetrazolium Bromide (M2128, MilliporeSigma, Burlington, MA, USA).

[10] = 40 mg/kg dose PO; listed as niclosamide; cited from earlier work
[11] = target: T1, AR-SV (Homo sapiens, UniProt P10275); test: AR protein ELISA in SNU475 cells; assay type: cell-based; conditions: 10 µM, 24 hours, AR ELISA (Figure S3A)
T1 sequence (P10275 1-628): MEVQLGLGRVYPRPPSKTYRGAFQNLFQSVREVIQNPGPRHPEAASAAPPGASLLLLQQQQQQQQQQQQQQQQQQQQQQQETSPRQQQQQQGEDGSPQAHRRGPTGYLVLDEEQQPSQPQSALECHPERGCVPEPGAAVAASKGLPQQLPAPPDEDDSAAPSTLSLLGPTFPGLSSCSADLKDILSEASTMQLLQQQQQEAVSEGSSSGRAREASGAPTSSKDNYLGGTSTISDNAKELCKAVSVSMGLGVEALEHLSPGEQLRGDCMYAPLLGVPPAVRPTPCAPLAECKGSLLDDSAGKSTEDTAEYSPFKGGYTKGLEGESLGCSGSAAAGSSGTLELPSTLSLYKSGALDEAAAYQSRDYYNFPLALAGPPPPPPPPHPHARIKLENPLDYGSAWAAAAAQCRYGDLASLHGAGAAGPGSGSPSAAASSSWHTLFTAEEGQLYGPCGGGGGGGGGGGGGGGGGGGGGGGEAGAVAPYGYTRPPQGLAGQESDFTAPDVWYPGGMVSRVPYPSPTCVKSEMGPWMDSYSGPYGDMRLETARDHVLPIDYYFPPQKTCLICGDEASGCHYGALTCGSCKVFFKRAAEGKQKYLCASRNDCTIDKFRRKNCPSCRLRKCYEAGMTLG
Method: as §2, §3, §4, §5, §6

[12] = Plasma stability, human plasma; assay type: in vitro ADME
Method: (§7) Samples were taken at 0, 30, 60, 120, 180, and 360 min to quantitate the disappearance of the valine conjugates and appearance of a cleaved parent. The matrix stability assay in plasma and the quantitative analysis of samples by UV-VIS HPLC were performed according to the standard protocol at Charles River Laboratories, Inc. (Wilmington, MA, USA).

[13] = Plasma stability, murine plasma; assay type: in vitro ADME, mouse
Method: as §7

[14] = male, C57BL/6, mouse, in vivo, iv, 2 mg/kg
[15] = male, C57BL/6, mouse, in vivo, po, 40 mg/kg
[16] = IV, 2 mg/kg (valine conjugates 2 mg/kg EQV)
[17] = IV, 2 mg/kg (valine conjugates 2 mg/kg EQV), non-compartmental analysis
[18] = PO, 40 mg/kg (valine conjugates 40 mg/kg EQV)
[19] = male, C57BL/6, mouse, plasma, iv, 2 mg/kg, IV, 2 mg/kg (valine conjugates 2 mg/kg EQV), analyte = dosed compound, non-compartmental analysis, read-out: AUCall, Geo Mean
[20] = male, C57BL/6, mouse, plasma, iv, 2 mg/kg, IV, 2 mg/kg (valine conjugates 2 mg/kg EQV), read-out: Cmax, Geo Mean
[21] = male, C57BL/6, mouse, plasma, po, 40 mg/kg, PO, 40 mg/kg (valine conjugates 40 mg/kg EQV), analyte = dosed compound, non-compartmental analysis, read-out: AUCall, Geo Mean
[22] = male, C57BL/6, mouse, plasma, po, 40 mg/kg, PO, 40 mg/kg (valine conjugates 40 mg/kg EQV), read-out: Cmax, Geo Mean
[23] = male, C57BL/6, mouse, plasma, IV, 2 mg/kg (valine conjugates 2 mg/kg EQV), read-out: Tmax, Geo Mean
[24] = male, C57BL/6, mouse, plasma, PO, 40 mg/kg (valine conjugates 40 mg/kg EQV), read-out: Tmax, Geo Mean
[25] = male, C57BL/6, mouse, plasma, single IV dose, 2 mg/kg or molar equivalent, read-out: Systemic clearance following an IV dose (converted)

Structure (SMILES)	IC50 [1] [nM]	IC50 [2] [nM]	IC50 ([2]; Homo sapiens, SNU-475, 72 h) [nM]	IC50 ([3]; Homo sapiens, HepG2, 72 h) [nM]	IC50 [4] [nM]	IC50 ([5]; Hepatocyte, 72 h) [µM]	Cell viability within hollow fibers (MTT assay) [9]	Decrease of AR protein levels compared to enzalutamide and sorafenib [11]	HL_Lambda_z, Geo Mean [8, 16] [h]	IV: Clobs, Geo Mean [8, 17] [L/h]	HL_Lambda_z, Geo Mean [8, 18] [h]	PO: Cl_Fobs, Geo Mean [8, 18] [L/h]	AUC [8, 19] [µM·h]	Cmax [8, 20] [µM]	AUC [8, 21] [µM·h]	Cmax [8, 22] [µM]	Tmax [8, 23] [min]	Tmax [8, 24] [min]	clearance [8, 25] [mL/min]	also measured
O=C(Nc1ccc([N+](=O)[O-])cc1Cl)c1cc(Cl)ccc1O [Niclosamide, niclosamide, reference compound]	250	1330	1300	600	370	7.2	no differences in cell viability	–	–	–	–	–	–	–	–	–	–	–	–	IC50 [5]: 7.16 µM; SNU475 invasion [6]: decreased invasion; Cell viability at 48 h [7]: not impacted; Expected plasma levels for up to 8 h post-dose ([8]; C57BL/6, mouse, in vivo): approximately 0.2 µM; PO: Cl_Fobs, Geo Mean ([8]; male, C57BL/6, mouse, in vivo): 0.78 L/h; Tmax [8, 14]: 4.8 min; clearance [8, 14]: 1.33 mL/min; Cmax ([8]; male, C57BL/6, mouse, in vivo, iv, 2 mg/kg, Cmax, Geo Mean): 6.03 µM; AUCall of parent following an oral dose of its valine conjugate [8, 15]: 0.8 µM·h; Tmax [8, 15]: 25.2 min; AUC ([8]; male, C57BL/6, mouse, in vivo, po, 40 mg/kg, AUCall following an oral dose of the unconjugated compound): 3.25 µM·h; Cmax ([8]; male, C57BL/6, mouse, in vivo, po, 40 mg/kg, Cmax following an oral dose of the unconjugated compound): 1.65 µM; Cmax ([8]; male, C57BL/6, mouse, in vivo, po, 40 mg/kg, Cmax, Geo Mean): 1.65 µM; Plasma niclosamide concentration 4 h after oral administration [10]: roughly 0.10 µM
O=C(Nc1ccc(C(F)(F)F)cc1Cl)c1cc(Cl)ccc1O [compound #7]	280	6600	4000	450	310	> 30	no differences in cell viability	more effectively decrease AR protein levels	4.85	0.04	3.58	0.21	3.7	6.98	13	5.79	4.8	15	0.667	Expected plasma levels for up to 8 h post-dose ([8]; linearly scaled from PK data, BID 75 mg/kg niclosamide, 105.7 mg/kg valine–niclosamide, 87.3 mg/kg valine–compound #7, 62.9 mg/kg compound #7): 0.86 µM; AUC ([8]; male, C57BL/6, mouse, plasma, po, 40 mg/kg, PO 40 mg/kg of the parent compound, read-out: AUCall following an oral dose of the unconjugated compound): 13 µM·h; Cmax ([8]; male, C57BL/6, mouse, plasma, po, 40 mg/kg, PO 40 mg/kg of the parent compound, read-out: Cmax following an oral dose of the unconjugated compound): 5.78 µM
O=C(Nc1ccc(C(F)(F)F)cc1)c1cc(Cl)ccc1O [compound #11]	580	7200	–	1900	560	9.5	–	more effectively decrease AR protein levels	0.96	0.03	2.68	0.35	5.06	11.3	7.98	6.08	4.8	25.2	0.5	IC50 ([2]; listed as Compound #11): 890 nM; IC50 ([3]; listed as Compound #11): 1860 nM; IC50 ([5]; listed as Compound #11): 9.47 µM; AUC ([8]; male, C57BL/6, mouse, plasma, po, 40 mg/kg, single PO dose, 40 mg/kg or molar equivalent, analyte = dosed compound, read-out: AUCall following an oral dose): 7.98 µM·h
CC(C)[C@H](N)C(=O)OCCOCn1cnc2c(=O)[nH]c(N)nc21 [valacyclovir]	–	–	–	–	–	–	–	–	–	–	–	–	–	–	–	–	–	–	–	Formation of the cleaved parent ([12]; 360 min): readily detectable acyclovir; Percentage of pro-drug remaining intact ([12]; 6 h (360 min)): 66.4%; Formation of the cleaved parent ([13]; 360 min): readily detectable acyclovir; Percentage of pro-drug remaining intact ([13]; 6 h (360 min)): 37.7%

— publication PMC12346198 (Cancers, 2025)
